In article PMC5344255, “Design, Synthesis and Biochemical Evaluation of Novel Selective Estrogen Receptor Ligand Conjugates Incorporating an Endoxifen-Combretastatin Hybrid Scaffold” (Biomedicines, 2016):
Several values for one entry are separate records, joined by “and”; a condition that tells them apart may be missing. Equal entries are not always repeated. Where two headings read alike, the source gives them in different places. Marks after values point to notes of the source that are not given here.

Assays:
[1] = tested on: MCF-7 human breast cancer cells; experiment: Lactate dehydrogenase (LDH) cytotoxicity assay in MCF-7; assay type: cell-based; settings: % cell lysis at 10 µM
Outline: (§1)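 Cells seeded at 1 × 10^4 per well and grown 24 h, then dosed with compounds over 1 nM–50 μM. Cell lysis quantified as released cytoplasmic LDH using the CytoTox 96 nonradioactive cytotoxicity assay.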

[2] = tested on: MDA-MB-231 human breast cancer cells; experiment: Lactate dehydrogenase (LDH) cytotoxicity assay in MDA-MB-231; assay type: cell-based; settings: % cell lysis at 10 μM
Outline: as §1

NCI 60 cell lines = experiment: NCI 60 cell line screen, values over the panel; assay type: cell-based; settings: Homo sapiens
HL-60 (TB) = experiment: NCI 60 cell line screen; assay type: cell-based, human; settings: HL-60 (TB) (Leukemia)
MOLT-4 = experiment: NCI 60 cell line screen; assay type: cell-based, human; settings: MOLT-4 (Leukemia)
RPMI-8226 = experiment: NCI 60 cell line screen; assay type: cell-based, human; settings: RPMI-8226 (Leukemia)
SR = experiment: NCI 60 cell line screen; assay type: cell-based, human; settings: SR (Leukemia)
EKVX = experiment: NCI 60 cell line screen; assay type: cell-based, human; settings: EKVX (Non-Small Cell Lung Cancer)
HOP-62 = experiment: NCI 60 cell line screen; assay type: cell-based, human; settings: HOP-62 (Non-Small Cell Lung Cancer)
NCI-H226 = experiment: NCI 60 cell line screen; assay type: cell-based, human
NCI-H23 = experiment: NCI 60 cell line screen; assay type: cell-based
NCI-H332M = experiment: NCI 60 cell line screen; assay type: cell-based, human; settings: NCI-H332M (Non-Small Cell Lung Cancer)
NCI-H460 = experiment: NCI 60 cell line screen; assay type: cell-based, human; settings: NCI-H460 (Non-Small Cell Lung Cancer)
NCI-H552 = experiment: NCI 60 cell line screen; assay type: cell-based, human; settings: NCI-H552 (Non-Small Cell Lung Cancer)
HCT-116 = experiment: NCI 60 cell line screen; assay type: cell-based, human; settings: HCT-116 (Colon Cancer)
HCT-15 = experiment: NCI 60 cell line screen; assay type: cell-based, human; settings: HCT-15 (Colon Cancer)
KM12 = experiment: NCI 60 cell line screen; assay type: cell-based, human; settings: KM12 (Colon Cancer)
SF295 = experiment: NCI 60 cell line screen; assay type: cell-based, human; settings: SF295 (CNS Cancer)
SNB-19 = experiment: NCI 60 cell line screen; assay type: cell-based, human; settings: SNB-19 (CNS Cancer)
MALME-3M = experiment: NCI 60 cell line screen; assay type: cell-based, human; settings: MALME-3M (Melanoma); one-dose 10 µM
M14 = experiment: NCI 60 cell line screen; assay type: cell-based, human; settings: M14 (Melanoma); one-dose 10 µM
UACC-62 = experiment: NCI 60 cell line screen; assay type: cell-based, human; settings: UACC-62 (Melanoma); one-dose 10 µM
IGROV1 = experiment: NCI 60 cell line screen; assay type: cell-based, human; settings: IGROV1 (Ovarian Cancer); one-dose 10 µM
OVCAR-3 = experiment: NCI 60 cell line screen; assay type: cell-based, human; settings: OVCAR-3 (Ovarian Cancer); one-dose 10 µM
OVCAR-5 = experiment: NCI 60 cell line screen; assay type: cell-based, human; settings: OVCAR-5 (Ovarian Cancer); one-dose 10 µM
NCI/ADR-RES = experiment: NCI 60 cell line screen; assay type: cell-based, human; settings: NCI/ADR-RES (Ovarian Cancer); one-dose 10 µM
A498 = experiment: NCI 60 cell line screen; assay type: cell-based
UO-31 = experiment: NCI 60 cell line screen; assay type: cell-based, human; settings: UO-31 (Renal Cancer); one-dose 10 µM
MCF-7 = experiment: NCI 60 cell line screen; assay type: cell-based; settings: Homo sapiens
MDA-MB-231/ATCC = experiment: NCI 60 cell line screen; assay type: cell-based, human; settings: MDA-MB-231/ATCC (Breast Cancer); one-dose 10 µM
BT-549 = experiment: NCI 60 cell line screen; assay type: cell-based, human; settings: BT-549 (Breast Cancer); one-dose 10 µM
MDA-MB-468 = experiment: NCI 60 cell line screen; assay type: cell-based, human; settings: MDA-MB-468 (Breast Cancer); one-dose 10 µM

CCC(=C(c1ccc(O)cc1)c1ccc(OCCN(C)C(=O)/C(=C/c2ccc(OC)c(O)c2)c2cc(OC)c(OC)c(OC)c2)cc1)c1ccc(O)cc1 (mixture of isomers) [Compound 28, (E)-N-(2-{4-[(E/Z)-1,2-Bis-(4-hydroxyphenyl)but-1-enyl]-phenoxy}ethyl)-3-(3-hydroxy-4-methoxyphenyl)-N-methyl-2-(3,4,5-trimethoxyphenyl)acrylamide]
% Cell Death at 10 μM [1]: 17%
% Cell Death at 10 μM [2]: 15%
CC50 (NCI 60 cell lines; in all but 4 cell lines of the panel, read-out: LC50 (the source's name)): > 50 µM
GI50 (NCI 60 cell lines; read-out: MG-MID, mean GI50): 1450 nM
GI50 (NCI 60 cell lines; read-out: log GI50 (mean) (converted)): 1620 nM
inhibition at 10 µM (NCI 60 cell lines; read-out: mean growth inhibition value): 98.7%
GI% (10^−5 M) (HL-60 (TB); one-dose 10 µM): 100 ^d,f %
GI50 (HL-60 (TB); Homo sapiens, five-dose screen): 1400 nM
GI50 (MOLT-4; Homo sapiens, five-dose screen): 1520 nM
GI% (10^−5 M) (MOLT-4; one-dose 10 µM): 64.31%
GI50 (RPMI-8226; Homo sapiens, five-dose screen): 896 nM
GI% (10^−5 M) (RPMI-8226; one-dose 10 µM): 91% and 90.65%
GI50 (SR; Homo sapiens, five-dose screen): 2350 nM
GI% (10^−5 M) (SR; one-dose 10 µM): 69.03%
GI% (10^−5 M) (EKVX; one-dose 10 µM): 85.11%
GI50 (EKVX; Homo sapiens, five-dose screen): 2010 nM
GI% (10^−5 M) (HOP-62; one-dose 10 µM): 81.99%
GI50 (HOP-62; Homo sapiens, five-dose screen): 2860 nM
GI50 (NCI-H226; Homo sapiens, NCI-H226 (Non-Small Cell Lung Cancer), five-dose screen): 1180 nM
GI% (10^−5 M) (NCI-H226; NCI-H226 (Non-Small Cell Lung Cancer), one-dose 10 µM): 100 ^d,g %
lethality (NCI-H226; NCI-H226, one-dose screen 10 μM): 73%
GI50 (NCI-H23; Homo sapiens, NCI-H23): 2190 nM
LC50 (NCI-H23; Homo sapiens, NCI-H23, five-dose screen): 48.9 µM
GI% (10^−5 M) (NCI-H23; NCI-H23 (Non-Small Cell Lung Cancer), one-dose 10 µM): 97% and 96.76%
GI50 (NCI-H332M; Homo sapiens, five-dose screen): 2020 nM
GI% (10^−5 M) (NCI-H332M; one-dose 10 µM): 81.7%
GI50 (NCI-H460; Homo sapiens, five-dose screen): 1420 nM
GI% (10^−5 M) (NCI-H460; one-dose 10 µM): 98% and 98.38%
GI50 (NCI-H552; Homo sapiens, 60 cell, five-dose screen): 1390 nM
GI% (10^−5 M) (NCI-H552; one-dose 10 µM): 100 ^d,h %
GI% (10^−5 M) (HCT-116; one-dose 10 µM): 98% and 97.57%
GI50 (HCT-116; Homo sapiens, five-dose screen): 1800 nM
GI% (10^−5 M) (HCT-15; one-dose 10 µM): 100 ^d,k %
GI50 (HCT-15; Homo sapiens, five-dose screen): 1530 nM
GI50 (KM12; Homo sapiens, five-dose screen): 1260 nM
GI% (10^−5 M) (KM12; one-dose 10 µM): 100 ^d,m %
GI50 (SF295; Homo sapiens, SF-295, five-dose screen): 1740 nM
GI% (10^−5 M) (SF295; one-dose 10 µM): 73.4%
GI50 (SNB-19; Homo sapiens, five-dose screen): 1720 nM
GI% (10^−5 M) (SNB-19; one-dose 10 µM): 81.49%
GI% (10^−5 M) (MALME-3M): 1.76%
GI% (10^−5 M) (M14): 1.68%
GI% (10^−5 M) (UACC-62): 0.922%
GI% (10^−5 M) (IGROV1): 2.3%
GI% (10^−5 M) (OVCAR-3): 1%
GI% (10^−5 M) (OVCAR-5): 3.21%
GI% (10^−5 M) (NCI/ADR-RES): 6.02%
GI% (10^−5 M) (A498; A498 (Renal Cancer), one-dose 10 µM): 2.94%
CC50 (A498; Homo sapiens, A498, five-dose screen, read-out: LC50 (the source's name)): 32.6 µM
GI% (10^−5 M) (UO-31): 2.66%
IC50 (MCF-7; MCF7, read-out: GI50 (IC50)): 9.5 nM
CC50 (MCF-7; MCF7, MCF-7, five-dose screen, read-out: LC50 (the source's name)): > 50 µM
GI% (10^−5 M) (MDA-MB-231/ATCC): 1.61%
GI% (10^−5 M) (BT-549): 1.12%
GI% (10^−5 M) (MDA-MB-468): 1.12%
